Laboratory results taken from publication PMC10893271, “Polymeric Nanoparticles as Oral and Intranasal Peptide Vaccine Delivery Systems: The Role of Shape and Conjugation” (Vaccines, 2024).
No end group written: not given here.

Biological target: T1, bovine trypsin (Bos taurus, UniProt P00760)
T1 sequence (P00760 24-246): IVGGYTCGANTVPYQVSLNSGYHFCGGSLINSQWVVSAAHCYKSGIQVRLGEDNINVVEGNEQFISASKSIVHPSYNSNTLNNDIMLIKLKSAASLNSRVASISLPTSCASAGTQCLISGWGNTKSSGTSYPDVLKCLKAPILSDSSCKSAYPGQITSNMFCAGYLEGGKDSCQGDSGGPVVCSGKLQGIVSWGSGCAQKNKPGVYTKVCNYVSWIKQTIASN
Assay: In vitro stability against proteolysis
Conditions: bovine trypsin (1000 U/mL stock, 100 µL) with 1 mM CaCl2 in PBS + 400 µL antigen solution (PJ8 1.25 mg/mL in PBS); 37 °C; HPLC with calibration curve

AKFVAAWTLKAAAQAEDKVKQSREAKKQVEKALKQLEDKVQ-NH2 [PJ8]
time to full degradation by trypsin: ≤ 30 min
